Calls of active or inactive are those of the source.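 Rule for the calls: active = compounds blocking the PEG3 reporter with IC50 up to 10 µM at either incubation, yet sparing the GAPDH control reporter; inactive = the rest.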
Assay: GAPDH and PEG-3 promoter luciferase suppression – cell-based, luminescence, set 2, counter-screen for PEG-3 promoter inhibitor project, dose response (AID 651549)
Details: HeLa PEG-Prom-luciferase or GAPDH-reporter, 6/24 h

| SMILES | IC50 (GAPDH, run 1, 6 h) | IC50 (GAPDH, run 1, 24 h) | IC50 (PEG-3, run 1, 6 h) | IC50 (PEG-3, run 1, 24 h) |
| --- | --- | --- | --- | --- |
| Cc1ccc(S(=O)(=O)NC(CC(C)C)C(=O)NCC(c2ccco2)N2CCCCC2)cc1 (configuration not stated) | inactive | inactive | inactive | inactive |
| CCOc1ccc(-n2cc(-c3ccccc3)c3c(N4CCOCC4)ncnc32)cc1 | > 99 µM (inactive) | > 99 µM (inactive) | > 99 µM (inactive) | > 99 µM (inactive) |
| Nc1ncn([C@@H]2O[C@H](CO)[C@@H](O)[C@H]2O)c(=O)n1 | 2.73 µM | 0.557 µM | inactive | inactive |
| COc1cc2nc(CN3CC=C(c4ccccc4)CC3)[nH]c(=O)c2cc1OC | inactive | inactive | inactive | inactive |
| O=C(Nc1cccc(-c2ccc(N3CCCCC3)nn2)c1)C(F)(F)F | 3.5 µM | inactive | 5.36 µM | 8.67 µM |
| Cc1cc(C)cc(NS(=O)(=O)c2ccc3c(c2)c(=O)n(C)c(=O)n3C)c1 | inactive | 1.85 µM | > 99 µM (inactive) | 4.62 µM |
| C[C@]12CC[C@H]3C(CCC4(O)CC(O)CC[C@]34C=O)C1=CC[C@H]2c1ccc(=O)oc1 (some centres not stated) | 3.59 µM | inactive | 1.52 µM | 7.64 µM |
| CCc1ccn2cc(-c3ccc4c(c3)OCO4)nc2c1 | 2.23 µM | inactive | 2.12 µM | 5.02 µM |
| O=C(O)c1ccc2nc(-c3ccccc3)sc2c1 | 6.04 µM | 0.72 µM | 7.05 µM | 7.03 µM |
| Cc1ccc(C)c(S(=O)(=O)N2CCN(c3ncnc4sccc34)CC2)c1 | inactive | 2.54 µM | inactive | 2.18 µM |
| COC(=O)c1ccc2nc(Nc3nc4ccc(F)cc4s3)sc2c1 | < 1 µM | 0.533 µM | < 1 µM | 2.74 µM |
| CC(=O)OC1CC2(O)C3CCC4CC(O)CCC4(C)C3CCC2(C)C1C1=CC(=O)OC1 (configuration not stated) | 0.416 µM | 0.458 µM | > 99 µM (inactive) | 0.499 µM |
| CC(=O)OC1CC[C@]2(C#N)[C@H]3CC[C@]4(C)[C@H](C5C=CC(=O)O5)CCC4(O)C3CCC2(O)C1 (some centres not stated) | 6.51 µM | inactive | 1.6 µM | inactive |
| CC1CC(C)C(=O)C(C(CC2CC(=O)NC(=O)C2)OC(=O)CC(=O)c2ccccc2)C1 (configuration not stated) | 1.36 µM | 7.25 µM | 5.46 µM | inactive |
| Cc1oc(-c2ccc3c(c2)OCCO3)cc1C(=O)O | 4.9 µM | 7.36 µM | 7.66 µM | inactive |
| O=C(COc1ccc2c(c1)CCC2)Nc1ccccn1 | 2.7 µM | 1.82 µM | 2.41 µM | 5.02 µM |
| CCC(c1nnnn1-c1ccc2c(c1)OCCO2)N1CCC(n2c(=O)[nH]c3ccccc32)CC1 (configuration not stated) | inactive | 4.01 µM | inactive | inactive |
| CC1CCN(c2nc3ccc(C(=O)O)cc3s2)CC1 | 1.93 µM | 2.14 µM | 1.01 µM | 1.51 µM |
| CC(C)(C)c1ccc(Cn2c(=O)cnc3ccccc32)cc1 | 6 µM | 6.64 µM | 3.47 µM | inactive |
| COC(=O)C1=C(CN2CCCc3ccccc32)NC(=O)NC1c1ccc(F)cc1 (configuration not stated) | 1.39 µM | 0.789 µM | 0.625 µM | 0.681 µM |
| CS(=O)(=O)c1ccc(-c2cn3cc(C(=O)O)ccc3n2)cc1 | inactive | 3.4 µM | inactive | inactive |
| O=C(c1ccco1)N1CCN(C(c2ccccc2Cl)c2nnnn2Cc2cccs2)CC1 (configuration not stated) | inactive | inactive | > 99 µM (inactive) | inactive |
| Cc1ccc2nc(NC(=O)CSCC(=O)OCC(=O)c3ccc(Br)cc3)sc2c1 | 3.81 µM | 1.98 µM | > 99 µM (inactive) | 1.96 µM |
| CC(=O)OC1(C)CC(C)C(=O)C(C(O)CC2CC(=O)NC(=O)C2)C1 (configuration not stated) | < 1 µM | < 1 µM | < 1 µM | 0.353 µM |
| Cc1c(CN2CCC(CO)(CCOc3ccccc3)CC2)[nH]c2c(Cl)cccc12 | inactive | inactive | inactive | inactive |
| O=C(Nc1ccccc1C(=O)Nc1nnc(C(F)(F)F)s1)c1ccccc1 | 1.41 µM | 7.02 µM | > 99 µM (inactive) | inactive |
| CC(=O)c1sc2c(c1OC(=O)c1ccc(Cl)cc1Cl)c(=O)n(-c1ccccc1)c(=S)n2-c1ccccc1 | 0.853 µM | 0.766 µM | > 99 µM (inactive) | 5.59 µM |

| SMILES | IC50 (GAPDH, run 1, 6 h) | IC50 (GAPDH, run 1, 24 h) | IC50 (PEG-3, run 1, 6 h) | IC50 (PEG-3, run 1, 24 h) |
| --- | --- | --- | --- | --- |
| CS(=O)(=O)c1ccc(-c2sc3ccccc3c2C#CCCO)cc1 | inactive | inactive | inactive | inactive |
| COc1ccc(Nc2ncnc3ccc(Br)cc23)c(OC)c1 | 1.16 µM | 1.68 µM | 1.05 µM | 0.798 µM |
| O=C(O)CSCC(=O)Nc1ccc(C2CCCCC2)cc1 | 5.37 µM | 0.307 µM | 5.56 µM | 4.57 µM |
| Cc1c(/C(O)=C2/C(=O)C(=O)N(Cc3cccnc3)C2c2ccccn2)cnn1-c1ccccc1 (configuration not stated) | 1.01 µM | 1.92 µM | 1.58 µM | 5.27 µM |
| CN1CCC2(CC1)N=C(c1ccc(F)cc1)C(=S)N2C(=O)c1ccc(C(C)(C)C)cc1 | inactive | inactive | inactive | inactive |
| CCC1(O)C(=O)OCc2c1cc1n(c2=O)Cc2cc3cc(O)ccc3nc2-1 (configuration not stated) | 3.1 µM | 4.36 µM | 3.1 µM | 9.31 µM |
| COc1ccc2[nH]c(=O)c(CN(Cc3cccnc3)S(=O)(=O)c3ccccc3F)cc2c1 | inactive | 5.38 µM | > 99 µM (inactive) | inactive |
| CCn1cc(C(=O)NCc2ccco2)c(=O)c2cc(S(=O)(=O)N3CC(C)CC(C)C3)ccc21 (configuration not stated) | inactive | 2.7 µM | > 99 µM (inactive) | 2.63 µM |
| CC(CCc1ccccc1)NC(=O)COC(=O)c1ccc(S(C)(=O)=O)c([N+](=O)[O-])c1 (configuration not stated) | inactive | inactive | inactive | 9.86 µM |
| CCCCCCCn1c(=N)n(CC(=O)c2ccco2)c2ccccc21 | inactive | inactive | inactive | inactive |
| CC(C)(C)c1ccc(Oc2ccc(N)cc2)cc1 | 6.12 µM | 5.35 µM | 6.09 µM | 6.51 µM |
| Cc1cc2cc(CCNC(=O)C(=O)c3c[nH]c4ccccc34)c(=O)[nH]c2cc1C | inactive | 4.9 µM | > 99 µM (inactive) | 7.83 µM |
| NC(=O)c1cc([N+](=O)[O-])ccc1NCc1ccc(N)cc1 | inactive | inactive | inactive | 7.33 µM |
| CC(=O)c1cccc(-c2ccnc3c2CC(C(=O)Nc2cccc(NS(C)(=O)=O)c2)O3)c1 (configuration not stated) | inactive | 8.62 µM | > 99 µM (inactive) | inactive |
| COc1ccc(CC2C(=O)NC(C)C(=O)N(C)C3C(=O)N(C)C(Cc4ccc(O)c(c4)Oc4ccc(cc4)C3O)C(=O)NC(C)C(=O)NC(C)C(=O)N2C)cc1 (configuration not stated) | < 1 µM | < 1 µM | < 1 µM | < 1 µM |
| O=C(NCC1CCCO1)C(c1ccc(F)cc1)N(C(=O)Cn1nnc(-c2ccc(F)cc2)n1)c1cccc(O)c1 (configuration not stated) | inactive | inactive | > 99 µM (inactive) | inactive |
| C=CCn1c(C)cc(C(=O)COc2ccc(C)nc2[N+](=O)[O-])c1C | 8.44 µM | inactive | 9.65 µM | 3.38 µM |
| Cc1cc(C(=O)Nc2cccc(C(=O)O)c2)oc1C | 7.74 µM | inactive | inactive | inactive |
| Cn1c(Cl)cnc1C1CC(=O)c2cc(Cl)ccc2O1 (configuration not stated) | inactive | 9.11 µM | inactive | inactive |
| COc1ccc(C(=O)Nc2ccc(C)cn2)c(OC)c1 | 1.07 µM | 3.41 µM | 3.63 µM | 4.17 µM |
| Cc1ccc(-c2cn3nc(C)c(C)nc3n2)cc1 | inactive | > 99 µM (inactive) | inactive | > 99 µM (inactive) |
| NS(=O)(=O)c1ccc(CCNc2nn3c(-c4ccc(F)c(Cl)c4)cnc3s2)cc1 | inactive | 2.38 µM | inactive | 2.99 µM |
| CCC(C)(C)c1ccc(Oc2ccc(N)cc2)cc1 | 5.21 µM | 0.566 µM | 7.48 µM | 7.31 µM |
| CCOC(=O)c1ccc2nc(Nc3nc4ccc(F)cc4s3)sc2c1 | > 99 µM (inactive) | > 99 µM (inactive) | 0.31 µM | < 1 µM |
| COC1CC(C)C(OC)c2cc(O)cc(c2O)NC(=O)C(C)=CC=CC(C)C(OC(N)=O)C(C)=CC(C)C1OC (configuration not stated) | inactive | inactive | inactive | inactive |
| CCCn1nc(C(=O)Nc2nc(-c3ccccn3)cs2)c2ccccc2c1=O | inactive | inactive | > 99 µM (inactive) | > 99 µM (inactive) |

— PubChem BioAssay AID651549 (Sanford-Burnham Center for Chemical Genomics, 2012)
